Reference: ChEMBL document CHEMBL1133959, “Syntheses and preliminary pharmacological evaluation of the two epimers of the 5-F2t-isoprostane” (2001)
The source made the active and inactive calls. The calls are words filed in the database; no cut-off is given here.

Tests used:
Assay type in all cases: functional
Rattus norvegicus [1] = species: Rattus norvegicus; assay: Effect of compound on rat thoracic aorta constriction in rat at 10e-5 M concentration; No effect
Rattus norvegicus [2] = species: Rattus norvegicus; assay: Effect of compound on rat thoracic aorta constriction in rat
Rattus norvegicus [3] = species: Rattus norvegicus; assay: Compound was tested for maximal contraction of rat thoracic aorta

Structure (SMILES) | pD2 (Rattus norvegicus [1]) | pD2 (Rattus norvegicus [2]) | Emax (Rattus norvegicus [3]) [%]
CCCCC/C=C\C[C@@H]1[C@H](/C=C/[C@H](O)CCCC(=O)OC)[C@@H](O)C[C@H]1O | inactive | – | –
CCCCC[C@H](O)/C=C/[C@H]1C2CC(CO2)[C@@H]1C/C=C\CCCC(=O)O (some centres undefined) | – | 7.8 | 189
CCCCC/C=C\C[C@@H]1[C@H](/C=C/[C@@H](O)CCCC(=O)OC)[C@@H](O)C[C@H]1O | inactive | – | –
